Experimental data reported in paper PMC12951551, “Do Amino-Oxetanes Resemble Amides? A Matched Molecular Pairs Property and Structural Comparison” (Journal of Medicinal Chemistry, 2026).
Converted amounts (≈) assume the structure as drawn.

Columns and labels:
[1] = Shake flask LogD (SFLogD) assay; format: physicochemical; details: for logD: pH = 7.4, octanol/water shake flask, average of 2 runs unless otherwise stated
Method: (§1) Permeability assay (RRCK): Ralph Russ canine kidney cells were used for permeability measurements using a cell monolayer in 96-transwell format. The detailed assay conditions have been reported previously.9 Test compounds were added to the donor wells and a buffer was added to the receiver wells to start the apical to basolateral transport assay.
(§2) Time 0 and 1.5 h incubation samples were taken for LC-MS/MS analysis. Apparent permeability (Papp) was calculated using the equation below (1), where Area is the surface area of the cell monolayer (0.0625 cm2), CD(0) is the […]

[2] = Experimental pKaH (amine basicity); format: physicochemical; details: for pKa: Table S2
Text: The influence of basicity is an ongoing rationale for inclusion of the oxetanes in drug candidates, providing the potential to attenuate off-target effects including hERG channel inhibition. […] As comparison against the benzamide analogue is not possible, we instead looked at the head-to-head comparison between amino-oxetane 4a and benzylamine 18 (Figure ).

human hepatocytes = assay: Human Hepatocyte (HHEP) stability assay, clearance; format: in vitro ADME; details: human hepatocytes, 0.5 million cells/mL, 1 µM test compound
Method: Human Hepatocyte (HHEP) assay: The high throughput HHEP stability assay was performed in a 384-well format (Greiner Bio-One, Monroe, NC). The cryopreserved HHEP were thawed, and re-suspended in Williams E medium (WEM, custom formula number 91-5233EC; Invitrogen, Grand Island, NY) supplemented with HEPES and Na2CO3. The cells were counted using the Trypan Blue exclusion method. A multidrop liquid dispenser (Multidrop DW, Thermo Scientific, Waltham, MA) was used to add the HHEP suspensions to the 384-well plates. The cell plates were covered and transferred to a Cytomat 2 incubator (ThermoFisher) and Biomek i7 (Beckman Coulter, Indianapolis, IN), equipped with three 3position MéCour heat exchangers. Test compounds were diluted on the Biomek i7 with buffer (15 µL) and added to the HHEP (30 µL). The final incubation contained 0.5 million cells/mL and 1 µM test compound in 45 µL total volume containing 0.01% DMSO. The incubation was carried out at 37 °C in the Cytomat 2 incubator (relative humidity ≥ 90%, 5% CO2/95% air). At various time points (2, 4, 11, 45, 75, 120, and 240 min), the plate was pulled out from the incubator by the Biomek i7 robot and put on the MéCour heated exchanger. Samples (3 µL) were transferred to a 384-well plate containing 30 µL acetonitrile with an internal standard (IS) to quench the reaction. Water (60 µL) was added to the quenched plate to dilute the organic solvent content for LC-MS/MS analysis. The plates were centrifuged at 3000 rpm for 10 min at 4 °C, sealed and subsequently analyzed using LC-MS/MS without further transfer of the supernatant.
Propranolol (CYP2D6), midazolam (CYP3A) and triazolam (CYP3A, low clearance), naloxone (UGT2B7), carbazeran (AO), and verapamil (CYP3A, CYP2C8) were used as positive controls. For CYP inhibition study, 1 mM ABT (a pan-cYP inhibitor) was pre-incubated with HHEP for 30 minutes at 37 °C before adding test compounds. Values are n >3 unless […]
as §1, §2

[3] = Permeability assay (RRCK); format: in vitro ADME, canine; details: dog, MDCK, apical to basolateral, average of 2 runs, footnote b = only one replicate
Kinetic solubility = format: physicochemical; details: for solubility at 24 h: aqueous pH buffer, aqueous buffer, kinetic from dmso stock, 37 °C, 600 µM start
Method: (§3) Aqueous buffer preparation: pH 3: 50 µL of 1N hydrochloric acid was added to 500 mL of deionized water. The solution was titrated with 1N hydrochloric acid to pH 3, and back titrated with 1N sodium hydroxide. pH 7.4: 100 mM sodium phosphate buffer is made by adding 56.4 g of dibasic sodium phosphate and 10.3 g of monobasic sodium phosphate to 4 L of deionized water. 250 µL of 100 mM sodium phosphate buffer was diluted with 250 µL of deionized water. The solution was titrated with 1N hydrochloric acid to pH 7.4, and back titrated with 1N sodium hydroxide. pH 10: Fisher Scientific pH 10 buffer (SB116-500) containing potassium hydroxide, potassium carbonate, and potassium […]
pH 12.8: 30 mL of 1N NaOH was added to 200 mL of deionized water. The solution was titrated with 1N sodium hydroxide to pH 12.8 and back titrated with 1N hydrochloric acid.
Kinetic solubility: Samples were diluted to 600 µM in the appropriate pH buffer (pH: 3, 7.4, 10) and to 600 µM (assumed 100% solubility) in a DMSO standard. Samples were mixed thoroughly and incubated at 37 °C for 24 h.
Following incubation, pH samples were transferred to a […] PVDF (low binding) and filtered to remove any precipitate. The filtrate was collected and analyzed via MS/MS. The ratio of MS response (DMSO:pH) is taken and multiplied by the initial 600 µM concentration to determine the concentration (solubility) of the samples in pH buffers. […]
as §1, §2

[4] = Chemical (pH) stability assay; format: physicochemical; details: 24 h under acidic, neutral, and basic conditions
Method: Chemical stability assay: The chemical stability assay was performed in 384 well plate format (volume = […]).
Plates were prefilled with 70 µL of the appropriate buffer (pH 1.2, 7.4, 10) after which the wells were spiked with 5 µL of test compounds (1 mM). Samples were incubated for their timepoint of interest (1 h, 4 h, 24 h) at 37 °C after which the samples were diluted in MeCN (and pH 12.8 buffer for experiment at pH 1.2), mixed with an internal standard and […]
as §3, §2

Row | Compound | Change in SFlogD of the carbonyl-to-oxetane replacement ([1]; pH 7.4, amino-oxetane versus matched benzamide) | logD [1] | pKa [2] | HHEPG clearance (human hepatocytes) [μL min^−1 million^−1] | Papp at 1.5 h [3] [×10⁻⁶ cm/s] | Kinetic solubility, in words (Kinetic solubility; across acidic, neutral, and basic conditions, compared with benzamide counterpart) | solubility at 24 h (Kinetic solubility; pH 3) [µM] | solubility at 24 h (Kinetic solubility; pH 7.4) [µM] | solubility at 24 h (Kinetic solubility; pH 10) [µM] | pKaH ([2]; text and Figure 6) | pH stability, in words [4] | Kinetic solubility, in words (Kinetic solubility; pH 3)
1 | O=S(=O)(c1ccccc1)c1ccc(C2(N3CCOCC3)COC2)cc1 [10a, 4-(3-(4-(Phenylsulfonyl)Phenyl)Oxetan-3-yl)Morpholine] | +0.44 | 1.55 | 3.08 | 4 | 36.7 | – | – | – | – | – | – | –
2 | COc1ccc(CNCc2ccccc2)cc1 [S1] | – | – | 8.81 | – | – | – | – | – | – | – | – | –
3 | COc1ccc(C2(N3CCOCC3)COC2)cc1 [4a, 4-(3-(4-Methoxyphenyl)Oxetan-3-yl)Morpholine] | – | 1.17 | 4.61 | 4 | 39.2 | solubility comparable to their analogous benzamides | 486 (≈ 121 µg/mL) | 556 (≈ 139 µg/mL) | 492 (≈ 123 µg/mL) | 4.61 | – | –
4 | COc1ccc(C2(NCC34C[C@H]5C[C@@H](C3)C[C@@H](C4)C5)COC2)cc1 [1a, N-(((3R,5R,7R)-Adamantan-1-yl)Methyl)-3-(4-Methoxyphenyl)Oxetan-3-Amine] | – | 3.6 | – | – | 25.8 | – | 533 (≈ 175 µg/mL) | < 8.9 | < 0.3 | – | reduced stability under neutral and basic conditions | markedly improved solubility
